Reference: patent US6596284B1, “Treating eczema with a combination of isotonic saline ocean® and nasal mast cell stabilizers” (priority 2002, dated 2003)
Where a name gives a salt, the structure may show the parent alone.

Test: Topical application of cromolyn sodium in OCEAN at the affected site in twenty adult subjects with atopic eczema
Format: in vivo, human
Conditions: 300 mg/45 ml OCEAN (0.67%), applied every 4 to 6 hours at the affected site, after two weeks
Description: A group of twenty adult subjects suffering from atopic eczema were asked to apply cromolyn sodium (at a concentration of 300 mg/45 ml OCEAN® giving a concentration of 0.67%) every 4 to 6 hours at the affected site, and instructed to rub the solution gently into the lesion.

Structure (SMILES): O=C(O)c1cc(=O)c2c(OCC(O)COc3cccc4oc(C(=O)O)cc(=O)c34)cccc2o1 [cromolyn sodium, disodium salt of 1,3-bis-(2-carboxy-chromone-5″yloxy)2-hydroxy propane]
- subjects who experienced relief from the symptoms: 19 of the 20
